According to patent publication US20230190852A1, “COMPOSITIONS AND METHODS FOR JOINT HEALTH” (Unigen, Inc., priority 2013, published 2023):

Experiments:
recombinant human BKb2R = target: T1, recombinant human BKb2R (Homo sapiens, UniProt P30411); experiment: Bradykinin Radioligand Binding Assay (BKB2); details: manually calculated by Cheng-Prusoff equation; read-out: BKB2 Ki (μg/ml) (converted)
T1 construct: expressed in transfected cells; host or cells: CHO-K1
T1 sequence (P30411 1-391): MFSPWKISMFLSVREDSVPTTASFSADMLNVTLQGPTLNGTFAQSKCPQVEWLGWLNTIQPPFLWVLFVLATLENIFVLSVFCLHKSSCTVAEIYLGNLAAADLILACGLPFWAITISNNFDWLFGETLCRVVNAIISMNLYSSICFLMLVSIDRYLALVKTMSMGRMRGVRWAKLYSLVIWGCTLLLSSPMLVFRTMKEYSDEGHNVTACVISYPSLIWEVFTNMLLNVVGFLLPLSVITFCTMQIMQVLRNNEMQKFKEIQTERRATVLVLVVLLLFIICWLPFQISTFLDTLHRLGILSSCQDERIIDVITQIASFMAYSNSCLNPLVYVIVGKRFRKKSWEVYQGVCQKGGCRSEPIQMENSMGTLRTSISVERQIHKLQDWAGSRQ
Method: (§1) BKB1 binding assay, as described in Example 17, was used to test curcumin compound isolated from a Curcuma longa extract (Compound 11), as well as commercially available curcumin purchased from Sigma-Aldrich (C1386). Curcumin was tested at final concentrations ranging from 200 μM to 5 nM. Binding curves were plotted by non-linear regression fit (using GraphPad Prizm software). Ki values were computed using Cheng-Prusoff algorithm. In addition, inhibition of BKB2 receptor binding activity by curcumin was examined with methods similar to those described in Example 17 for the BKB1 receptor with some modifications. Bradykinin Radioligand Binding Assay (BKB2) was conducted using a standard assay under the following conditions: • 1. Composition of Assay Buffer: 24 mM TES, pH 6.8, 1 mM 1.10-Phenanthrioline, 0.3% BSA. • 2. Source of BKb2R: CHO-K1 cells expressing recombinant human BKb2R • 3. Ligand: [^3H]-Bradykinin 0.2 nM. • 4. Incubation time: 90 min RT. • 5. Reading: TopCount.
Commercial curcumin (Sigma, C1386) was tested at concentrations ranging from 200 μM to 5 nM. […] Ki was manually calculated by using Cheng-Prusoff equation.

BKB1 receptor = target: T2, BKB1 receptor (Homo sapiens, UniProt P46663); experiment: Bradykinin B1 (BKB1) radioligand binding assay
T2 construct: Membranes from human IMR-90 lung fibroblasts, stimulated with IL-1β; endogenous in cells; host or cells: human IMR-90 lung fibroblasts, IL-1β stimulated (membranes)
T2 sequence (P46663 1-353): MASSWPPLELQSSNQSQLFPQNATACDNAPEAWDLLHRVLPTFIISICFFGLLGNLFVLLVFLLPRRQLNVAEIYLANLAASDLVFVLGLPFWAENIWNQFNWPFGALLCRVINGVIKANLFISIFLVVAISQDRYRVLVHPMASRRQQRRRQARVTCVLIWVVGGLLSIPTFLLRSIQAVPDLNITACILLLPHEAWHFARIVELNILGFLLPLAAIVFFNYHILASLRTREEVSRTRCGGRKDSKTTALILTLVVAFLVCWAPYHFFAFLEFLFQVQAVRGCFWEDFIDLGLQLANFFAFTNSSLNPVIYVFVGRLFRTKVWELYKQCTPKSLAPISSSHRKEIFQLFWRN
Method: as §1, with “Membranes from human IMR-90 lung fibroblasts, stimulated with IL-1β in modified HEPES buffer (PH=7.4), were incubated with a test sample in the presence of 0.9 nM [^3H](Des-[…])-Kallidin for 60 minutes at room temperature. After incubation, membranes were filtered and washed five times with modified DPBS buffer (pH=7.4). Samples were scintillation counted to determine the amount of specifically bound to the BKB1 receptor containing membrane. […] BKB1 binding” for “BKB1 binding”, “some modifications. […] Composition of” for “some modifications. Bradykinin Radioligand Binding Assay (BKB2) was conducted using a standard assay under the following conditions: • 1. Composition of”

CD-1 mice [1] = experiment: Nociceptive behavior model elicited by intraplantar injection of formalin; assay type: in vivo
Method: Mice (n=6 per group) were habituated under inverted Plexiglas observation chamber for 30 minutes to allow them to acclimatize to their surroundings. […] Mice were immediately transferred to their individual observational chamber. […] Mirrors positioned behind the chambers enabled observation of the right hind paw when it was obscured from direct view. […] These behavioral reactions observed for the first five minutes are due to direct action of the irritant on sensory nerve endings where is believed to be as a result of inflammation in the later phase. […] Mice were treated with curcumin (50, 100, 150 or 200 mg/kg) or ibuprofen (200 mg/kg) orally half an hour before intraplantar formalin injection.

[2] = system: Rabbit cartilage explants; experiment: Ex vivo glycosaminoglycans (GAG) release assay; assay type: cell-based
Method: Articular cartilage from hock joints of rabbits (2.5 kg body weight) was removed immediately after each animal was sacrificed and articular cartilage explants were obtained by following the method described by Sandy et al. (Biochem. Biophy Acta 543:36, 1978). Briefly, after the articular surfaces were surgically exposed under sterile conditions, approximately 200-220 mg articular surfaces per joint were dissected and submerged into complete medium (DMEM, supplemented with heat inactivated 5% FBS; penicillin 100 U/ml; streptomycin 100 ug/ml). They were then rinsed several times with the complete medium and incubated for 1 to 2 days at 37° C. in a humidified 5% CO2/95% air incubator for stabilization. The complete medium was replaced with a basal medium (DMEM, supplemented with heat-inactivated 1% FBS, 10 mM HEPES, and penicillin 100 U/ml streptomycin 100 μg/ml). Approximately 30 mg cartilage pieces (2×3×0.35 mm/piece) were placed in 24-well plates and treated with given concentrations of test agents. After pretreatment for 1 h, 5 ng/ml of rhIL-1α was added to the culture medium and further incubated at 37° C. in a humidified 5% CO2/95% air incubator. The culture medium was collected 24 h later and stored at −20° C. until assay.
The amount of sulphated GAGs (e.g., released from proteoglycans) in the medium at the end of the reaction reflects the amount of articular cartilage degradation, which was determined using the commercially available 1,9-dimethy-methylene blue method according to the instructions of the manufacturer (Blyscan™ assay, Accurate Chemical and Scientific Corp., Westbury, N.Y.).

Lewis rats = experiment: Carrageenan-induced rat paw edema model (paw edema and pain sensitivity); assay type: in vivo; details: for Pain sensitivity, percent change of vehicle / Paw edema, percent change of vehicle: 166 mg/kg oral 1 hr after carrageenan, female Lewis rats
Method: Local inflammation was induced by intraplantar injection of carrageenan λ (Sigma, St. Louis, Mo.; 100 μl of 1% [w/v] in saline) into the plantar surface of right hind paw of sedated rat (with 2.5% isoflurane) at time 0 (T=0) (Gamache et al., J Neurosurg. 65:679, 1986; Guay et al., J. Biol. Chem. 279:24866, 2004; Chou et al., Anesth. Analg. 97:1724, 2003). Rats were acclimated in a procedure room for 20-30 minutes before each measurement was taken. Allodynia was evaluated by measuring responsiveness to the tip of a Randell-Selitto paw pressure test applied perpendicular to the central plantar surface of the right hind paw. A positive response to the applied pressure, noted by sharp withdrawal of the paw, was recorded automatically by an electronic Von Frey Anesthesiometer (2390 series Electrovonfrey, IITC, Woodland Hills, Calif.) (Vivancos et al., Braz. J. Med. Biol. Res. 37:391, 2004). Mechanical allodynia was evaluated before carrageenan inoculation, and thereafter at 1 hr, 2 hr, 4 hr and 6 hr. Paw edema volume was measured with the use of Plethysmometer (IITC, Woodland Hills, Calif.; Model 520) at time 0 (before carrageenan), and then 1 hr, 2 hr, 4 hr, and 6 hr after carrageenan injection. Animals (N=5 per group) were orally gavaged with a positive control ibuprofen (Spectrum Chemical MFG, Gardena, Calif.) (100 or 200 mg/kg); test articles such as: extracts, and combinations of extracts at various doses from 100, 200, 300 to 400 mg/kg and vehicle control (propylene glycol) were given 1 hour after carrageenan inoculation unless specified otherwise.

CD-1 mice [3] = experiment: Visceral pain perception model (Writhing's test, acetic acid); assay type: in vivo
Method: Mice (n=6 per group) were habituated under an inverted Plexiglas observation chamber for 30 minutes to allow them to acclimatize to their surroundings. Animals were orally administered treatment articles at different doses, […], or vehicle control (propylene glycol) 30 minutes before intraperitoneal administration of freshly made acetic acid solution (0.7% in 0.9% NaCl) at 10 ml/kg using a 26 gauge needle. The experiment was carried out at room temperature. After the challenge, each animal was placed back into its own individual section of the observation chamber and the number of constrictions of the abdominal muscle together with stretching was counted cumulatively over a period of 30 minutes (Collier et al., Br. J. Pharmacol. Chemother. 32:295, 1968).

With `COc1cc(/C=C/C(=O)CC(=O)/C=C/c2ccc(O)c(OC)c2)ccc1O` [Curcumin] the Ki (recombinant human BKb2R) was 157 µM, the “selectivity BKB1 vs BKB2 binding” value (BKB1 receptor) was “selective BKB1 antagonist” and the Ki (BKB1 receptor; Cheng-Prusoff, read-out: BKB1 Ki (μg/ml) (converted)) was 5.9 µM. For the same compound, the “Pain Sensitivity 20-40 Minutes after Formalin Injection % ↓ vs. Vehicle” value (CD-1 mice [1]; 50 mg/kg oral) was 53.1%, the “Pain Sensitivity 20-40 Minutes after Formalin Injection % ↓ vs. Vehicle” value (CD-1 mice [1]; 100 mg/kg oral) was 52.5% and the “Pain Sensitivity 20-40 Minutes after Formalin Injection % ↓ vs. Vehicle” value (CD-1 mice [1]; 150 mg/kg oral) was 60.3%. The “Pain Sensitivity 20-40 Minutes after Formalin Injection % ↓ vs. Vehicle” value (CD-1 mice [1]; 200 mg/kg oral) was 74.6%.

`CC(=O)N[C@H]1C(O)O[C@H](CO)[C@@H](O)[C@@H]1O` (stereo partly shown) [NAG, N-Acetyl Glucosamine] showed an activity at 25 µg/mL ([2]; Oryctolagus cuniculus, 24 h, 25 μg/ml, rhIL-1α 5 ng/ml (IL-1α alone = 100)) of 95.7%, an activity at 50 µg/mL ([2]; Oryctolagus cuniculus, 24 h, 50 μg/ml, rhIL-1α 5 ng/ml (IL-1α alone = 100)) of 99.2% and an activity at 100 µg/mL ([2]; Oryctolagus cuniculus, 24 h, 100 μg/ml, rhIL-1α 5 ng/ml (IL-1α alone = 100)) of 87.5%. The activity at 150 µg/mL ([2]; Oryctolagus cuniculus, 24 h, 150 μg/ml, rhIL-1α 5 ng/ml (IL-1α alone = 100)) was 81.2%, the “protective effect on rhIL-1α-mediated PG degradation / GAG release” value ([2]; rhIL-1α 5 ng/ml) was “marginal” and the “Pain sensitivity, percent change of vehicle” value (Lewis rats; 1 hr) was 8.8%. For the same compound, the “Paw edema, percent change of vehicle” value (Lewis rats; 1 hr) was 8.2%, the “Pain sensitivity, percent change of vehicle” value (Lewis rats; 3 hr) was 3.6% and the “Paw edema, percent change of vehicle” value (Lewis rats; 3 hr) was 15.8%. The “Pain sensitivity, percent change of vehicle” value (Lewis rats; 5 hr) was 2.6%, the “Paw edema, percent change of vehicle” value (Lewis rats; 5 hr) was 6.2% and the “analgesic and anti-inflammatory activity” value (Lewis rats; oral, rosmarinic acid 200 mg/kg, eriocitrin 100 mg/kg, NAG 166 mg/kg) was “minimal to no activity in inhibiting pain or inflammation”. The “number of abdominal constrictions / behavioral responses in 30 minutes, Mean ± SD” value (CD-1 mice [3]; 300 mg/kg oral) was 91.0 ± 18.7, the “Visceral pain sensitivity, behavioral responses, Mean ± SD” value (CD-1 mice [3]; 300 mg/kg oral 30 min before acetic acid i.p., observed 30 minutes, CD-1 mice) was 91.0 ± 18.7 and the “Visceral pain sensitivity, % inhibition vs vehicle” value (CD-1 mice [3]; 300 mg/kg oral, vs vehicle, CD-1 mice) was 5.4%.
